Patent US20220389001A1, “ATF6 MODULATORS AND USES THEREOF” (Praxis Biotech LLC, priority 2019, published 2022)

What was measured:
ATF6 [1] = assay: ERSE ATF6-luciferase assay in presence of Tg-induced ER stress (U2-OS ATF6 TRE-luciferase reporter cells); format: cell-based, Human; details: Tg only = 100%; for activity at 1 µM / activity at 10 µM: Homo sapiens, U2OS, 8 h; for activity at 1 µM / ATF6 activity @ 1 μM [%]: 1 μM test compound; for activity at 10 µM / ATF6 activity @ 10 μM [%]: 10 μM test compound; for ATF6 activity @ 1 μM [%] / ATF6 activity @ 10 μM [%]: 8 hr
Protocol: (§1) To understand how exemplary compounds of the invention modulate the activity of ATF6 in absence or presence of endoplasmic reticulum (ER) stress, a Human bone osteosarcoma (U2-OS)-based TRE-luciferase reporter stable cell line was generated to determine the modulation of transcription of ATF6 target genes.
(§2) U2-OS cells were obtained from the American Type Culture Collection (ATCC HTB-96, ATCC Manassas, Va.) and were cultured with growing medium containing Dulbecco's Modified Eagle's Medium (DMEM) (Cat. No.: SH30023.02, HyClone) supplemented with fetal bovine serum (FBS) 10% (Cat. No.: 16000044, Gibco) and 1% penicillin-streptomycin antibiotic cocktail (Cat. No.: SV30010, Hyclone).
(§3) Cignal Lenti ATF6 luc reporter (Qiagen #CLS-6031L) was used to produce a stable cell line in U2-OS cells (U2-OS ATF6 TRE-luciferase reporter). The lenti ATF6 reporter is a preparation of replication incompetent, VSV-g pseudotyped lentivirus particles expressing the firefly luciferase gene under the control of a minimal (m)CMV promoter and tandem repeats of the ATF6 transcriptional response element (TRE). The number of response elements as well as the intervening sequence between response elements has been experimentally optimized to maximize the signal to noise ratio.
(§4) Exemplary compounds of the invention and reference compounds were prepared from powder as 10 mM stock solutions in dimethyl sulfoxide (DMSO; Cat. No. #D2650, Sigma Aldrich) and stored at −80° C. in presence of N2 neutral atmosphere.
(§5) For the primary screening, 40,000 U2-OS ATF6 TRE-luciferase reporter cells were plated in poly-D-lysine (Cat. No.: P2636, Sigma) pre-coated white 96-well plates (Thermo Scientific Nunc #136101) with 100 μL of growing medium. Cells were incubated in humidified chambers for 24 hr.
For testing exemplary compounds in presence of ER-stress, cells were pre-treated for 30 min with 50 μL growing medium containing either vehicle (DMSO), 1 or 10 μM test compound. After this pre-incubation, 50 μL of a solution containing 0.2 μM of the ER stress-inducer thapsigargin (Tg) was added to the appropriate wells. The Tg solution also contains vehicle or test compounds at 1 or 10 μM as indicated. The final concentration of DMSO in each well was kept at 0.3%. Plates were incubated for 8 hr in humidified chambers.
After the 8 hr incubation, plates were cooled down to room temperature for 10 min prior to the luciferase assays. Luciferase reactions were performed using Luciferase Assay System (Cat. No.: E4550, Promega). Briefly, each well was washed with 100 μl of PBS 1× and, then, 20 μl of lysis reagent was added into each well. Plates were shaken for 10 min and, then, 50 μl of Luciferase Assay Reagent was added to each well. Luminescence was determined by integration of 1 s with a gain of 110 in a Synergy 4 Microplate reader. All measurements were carried out in triplicate.
The average activity determined from the wells containing vehicle only (DMSO, 0% of ATF6 activity) was used as blank and subtracted from the rest of measurements. The average activity determined from the wells containing Tg only was used as 100% of ATF6 activity. The percentage of modulation of exemplary compounds was calculated by normalizing values to potential maximal activation with Tg.
ATF6 activities of exemplary compounds at 1 and 10 μM in presence Tg-induced ER stress tested in the U2-OS ATF6 TRE-luciferase reporter cells were determined and are shown in Table 2.

ATF6 [2] = assay: ERSE ATF6-luciferase assay in absence of ER stress (U2-OS ATF6 TRE-luciferase reporter cells); format: cell-based, Human; details: 8 hr, normalized to maximal activation with Tg; for ATF6 activity @ 1 μM- No Tg [%]: 1 μM test compound; for ATF6 activity @ 10 μM- No Tg [%]: 10 μM test compound
Protocol: as §1, §2, §3, §4, §5
For testing exemplary compounds in absence of ER-stress, cells were treated for 8 hr with 100 μL growing medium containing either vehicle (DMSO), 1 or 10 μM test compound or 0.1 μM Tg. The final concentration of DMSO in each well was kept at 0.3%. Plates were incubated in humidified chambers.
After 8 hr of incubation, plates were cooled down to room temperature for 10 min prior to luciferase assays. Luciferase reactions were performed as above. Luminescence was read by integration of 1 s with a gain of 110 in a Synergy 4 Microplate reader. All measurements were carried out in triplicate.
The average activity determined from the wells containing vehicle only (DMSO, 0% of ATF6 activity) was used as blank and subtracted from the rest of measurements. The percentage of modulation of exemplary compound was calculated by normalizing values to potential maximal activation with Tg.
ATF6 activities of exemplary compounds at 1 and 10 μM in absence of Tg-induced ER stress in the U2-OS ATF6 TRE-luciferase reporter cells were determined and are shown in Table 3.

| SMILES | activity at 1 µM (ATF6 [1]) [%] | activity at 10 µM (ATF6 [1]) [%] | ATF6 activity @ 1 μM [%] (ATF6 [1]) | ATF6 activity @ 10 μM [%] (ATF6 [1]) | ATF6 activity @ 1 μM- No Tg [%] (ATF6 [2]) | ATF6 activity @ 10 μM- No Tg [%] (ATF6 [2]) |
| --- | --- | --- | --- | --- | --- | --- |
| O=C(Nc1cnn(C2CCc3cc(C(F)(F)F)ccc32)c1)c1cc(-c2cnccn2)on1 (centres unmarked) [Compound 1-12, 5-(pyrazin-2-yl)-N-(1-(5-(trifluoromethyl)-2,3-dihydro-1H-inden-1-yl)-1H-pyrazol-4-yl)isoxazole-3-carboxamide] | 75 to 100 | 75 to 100 |  |  |  |  |
| CC(c1ccc(C(F)(F)F)cc1C(F)(F)F)n1cc(NC(=O)c2cc(-c3cnccn3)no2)cn1 (centres unmarked) [Compound 1-11, N-(1-(1-(2,4-bis(trifluoromethyl)phenyl)ethyl)-1H-pyrazol-4-yl)-3-(pyrazin-2-yl)isoxazole-5-carboxamide] | 50 to 75 | 50 to 75 |  |  |  |  |
| CC(c1ccc(C(F)(F)F)cc1C(F)(F)F)n1cc(NC(=O)c2cc(-c3cnccn3)no2)cn1 (single isomer, unassigned) [Compound 1-26, N-(1-(1-(2,4-bis(trifluoromethyl)phenyl)ethyl)-1H-pyrazol-4-yl)-3-(pyrazin-2-yl)isoxazole-5-carboxamide] |  |  | --- (--- refers to <50% at 1 or 10 μM test compound) | --- (--- refers to <50% at 1 or 10 μM test compound) |  |  |
| CC(c1c(Cl)cccc1Cl)n1cc(NC(=O)c2cc(-c3ccco3)on2)cn1 (centres unmarked) [Compound 1-1, N-(1-(1-(2,6-dichlorophenyl)ethyl)-1H-pyrazol-4-yl)-5-(furan-2-yl)isoxazole-3-carboxamide] |  |  |  |  | + (+ refers to 0% < % activity < 25% at 1 or 10 μM test compound) | + (+ refers to 0% < % activity < 25% at 1 or 10 μM test compound) |
| O=C(Nc1cnn(Cc2ccc(C(F)(F)F)cc2C(F)(F)F)c1)c1cc(-c2ccco2)on1 [Ceapin-A7, reference compound] |  |  | --- (--- refers to <50% at 1 or 10 μM test compound) | --- (--- refers to <50% at 1 or 10 μM test compound) |  |  |
| CC(c1c(F)cccc1Cl)n1cc(NC(=O)c2cc(-c3ccco3)on2)cn1 (centres unmarked) [Compound 1-4, N-(1-(1-(2-chloro-6-fluorophenyl)ethyl)-1H-pyrazol-4-yl)-5-(furan-2-yl)isoxazole-3-carboxamide] | > 150 | > 150 |  |  |  |  |
| CC(c1c(F)cccc1Cl)n1cc(NC(=O)c2cc(-c3ccco3)on2)cn1 (single isomer, unassigned) [Compound 1-14, N-(1-(1-(2-chloro-6-fluorophenyl)ethyl)-1H-pyrazol-4-yl)-5-(furan-2-yl)isoxazole-3-carboxamide] |  |  | +++ (+++ refers to >150% at 1 or 10 μM test compound) | +++ (+++ refers to >150% at 1 or 10 μM test compound) | + (+ refers to 0% < % activity < 25% at 1 or 10 μM test compound) | + (+ refers to 0% < % activity < 25% at 1 or 10 μM test compound) |
| CC(c1c(Cl)cccc1Cl)n1cc(NC(=O)c2cc(-c3cccs3)on2)cn1 (centres unmarked) [Compound 1-13, N-(1-(1-(2,6-dichlorophenyl)ethyl)-1H-pyrazol-4-yl)-5-(thiophen-2-yl)isoxazole-3-carboxamide] | 75 to 100 | 100 to 125 |  |  | + (+ refers to 0% < % activity < 25% at 1 or 10 μM test compound) | + (+ refers to 0% < % activity < 25% at 1 or 10 μM test compound) |
| Cc1c(NC(=O)c2cc(-c3ccco3)on2)cnn1C(C)c1c(Cl)cccc1Cl (centres unmarked) [Compound 1-22, N-(1-(1-(2,6-dichlorophenyl)ethyl)-5-methyl-1H-pyrazol-4-yl)-5-(furan-2-yl)isoxazole-3-carboxamide] | 75 to 100 | 100 to 125 |  |  | + (+ refers to 0% < % activity < 25% at 1 or 10 μM test compound) | + (+ refers to 0% < % activity < 25% at 1 or 10 μM test compound) |
| CC(c1c(F)cccc1Cl)n1cc(NC(=O)c2cc(-c3ccco3)on2)cn1 (single isomer, unassigned) [Compound 1-15, N-(1-(1-(2-chloro-6-fluorophenyl)ethyl)-1H-pyrazol-4-yl)-5-(furan-2-yl)isoxazole-3-carboxamide] |  |  | + (+ refers to 100% < % activity < 125% at 1 or 10 μM) | + (+ refers to 100% < % activity < 125% at 1 or 10 μM) | + (+ refers to 0% < % activity < 25% at 1 or 10 μM test compound) | + (+ refers to 0% < % activity < 25% at 1 or 10 μM test compound) |
| CC(c1ccc(F)cc1F)n1cc(NC(=O)c2cc(-c3ccco3)on2)cn1 (single isomer, unassigned) [Compound 1-17, N-(1-(1-(2,4-difluorophenyl)ethyl)-1H-pyrazol-4-yl)-5-(furan-2-yl)isoxazole-3-carboxamide] |  |  | + (+ refers to 100% < % activity < 125% at 1 or 10 μM) | + (+ refers to 100% < % activity < 125% at 1 or 10 μM) | + (+ refers to 0% < % activity < 25% at 1 or 10 μM test compound) | + (+ refers to 0% < % activity < 25% at 1 or 10 μM test compound) |
| CC(c1ccc(C(F)(F)F)cc1C(F)(F)F)n1cc(NC(=O)c2cc(-c3cnccn3)no2)cn1 (single isomer, unassigned) [Compound 1-25, N-(1-(1-(2,4-bis(trifluoromethyl)phenyl)ethyl)-1H-pyrazol-4-yl)-3-(pyrazin-2-yl)isoxazole-5-carboxamide] |  |  | - (- refers to 75% < % activity < 100% at 1 or 10 μM) | - (- refers to 75% < % activity < 100% at 1 or 10 μM) |  |  |
| CC(c1ccc(F)cc1F)n1cc(NC(=O)c2cc(-c3ccco3)on2)cn1 (centres unmarked) [Compound 1-5, N-(1-(1-(2,4-difluorophenyl)ethyl)-1H-pyrazol-4-yl)-5-(furan-2-yl)isoxazole-3-carboxamide] | 100 to 125 | > 150 |  |  |  |  |
| CC(c1ccc(F)cc1Cl)n1cc(NC(=O)c2cc(-c3ccco3)on2)cn1 (centres unmarked) [Compound 1-6, N-(1-(1-(2-chloro-4-fluorophenyl)ethyl)-1H-pyrazol-4-yl)-5-(furan-2-yl)isoxazole-3-carboxamide] | 100 to 125 | 75 to 100 |  |  |  |  |
| O=C(Nc1cnn(C2CCCc3ccccc32)c1)c1cc(-c2ccco2)on1 (centres unmarked) [Compound 1-3, 5-(furan-2-yl)-N-(1-(1,2,3,4-tetrahydronaphthalen-1-yl)-1H-pyrazol-4-yl)isoxazole-3-carboxamide] | 100 to 125 | 125 to 150 |  |  |  |  |
| CC(c1ccc(F)cc1F)n1cc(NC(=O)c2cc(-c3ccco3)on2)cn1 (single isomer, unassigned) [Compound 1-16, N-(1-(1-(2,4-difluorophenyl)ethyl)-1H-pyrazol-4-yl)-5-(furan-2-yl)isoxazole-3-carboxamide] | 100 to 125 |  |  | ++ (++ refers to 125% < % activity < 150% at 1 or 10 μM test compound) | + (+ refers to 0% < % activity < 25% at 1 or 10 μM test compound) | + (+ refers to 0% < % activity < 25% at 1 or 10 μM test compound) |
